Laboratory results from patent US20220370636A1, “NICOTINAMIDE ADENINE DINUCLEOTIDE ACTIVATOR AND USE THEREOF” (University of South Florida, priority 2021, published 2022).

Experiments:
Type in all cases: in vivo
db/db mice [1] = test: Pancreatic β cells immunostaining and Gomori aldehyde fuchsin staining in db/db mice; details: 4 weeks
Procedure: Immunostaining. Immunostaining of the pancreas was performed for the measurement of insulin secreting β cells area, as previously described. Briefly, the frozen pancreatic tissues were fixed into tissue freezing media (TFM). Pancreas were cut into 10 μm thick sections and kept at −80° C. For immunostaining, the slides were first air dried and washed with phosphate buffer saline (PBS). The sections were then fixed in 4% paraformaldehyde for 30 min and blocked with SuperBlock™ T20 (TBS) blocking buffer (Thermo scientific, MA, USA) for 30 min, at room temperature (RT). Slides were then incubated with insulin primary antibody (sc-9168, Santa Cruz, TX, USA) diluted in blocking buffer (1:200), overnight at 4° C. Slides were then washed in PBS and incubated with Alexa Fluor®488 secondary antibody (Abcam, Mass., USA) diluted in blocking buffer for 1 h at RT. Following washes, the slides were then mounted with ProLong® Gold antifade mountant containing DAPI (Molecular Probe, OR, USA). Nuclei were labelled by DAPI. The images obtained with confocal multiphoton laser scanning microscope (Olympus FV1000 MPE, Olympus Inc., USA) were quantified by using ImageJ software (NIH, USA). The cross-sectional areas of pancreas and β cells were determined from multiple sections (n=3 mice per group), separated by at least 50 μm from each section. Pancreatic β cell area was calculated by using the following formula: islet β cell area (%)=(area stained by insulin anti-body/total islets area)×100.
Gomori aldehyde fuchsin staining. The Gomori aldehyde fuchsin staining of the pancreatic β cells was performed as per previously published protocol. Briefly, the frozen pancreas was TFM embedded and cut into 6 μm thick transverse serial cryosections using Microm cryostat machine. The slides were air dried at 60° C. and dewaxed using xylene and then hydrated through decreasing concentrations of ethyl alcohol. The slides were then rinsed in cold tap water followed by a single rinse in 50% ethanol and immersed in aldehyde fuchsin (Electron Microscopy Services, PA, USA) for 1 h. The excess stain was removed by rinsing in 70% ethanol and tap water. The slides were then counter-stained with Light Green (American Master Tech Scientific, CA, USA) through immersion for 60 s and dehydrated with increasing concentration of ethanol, and cleared with xylene. The sections were then mounted with disterene phthalate xylene (DPX) mountant (Sigma-Aldrich, MO, USA). Images were obtained at ×20 magnification with the Olympus IX73 inverted microscope using CellSens Standard software (Olympus Soft Imaging Solution, USA) and quantified with ImageJ software (NIH, USA).

Nampt = target: T1, Nampt (Mus musculus, UniProt Q99KQ4); test: Gastrocnemius muscle Nampt enzymatic activity in db/db mice; details: 4 weeks, vs db-Veh
T1 construct: from tissue; host or cells: whole heart homogenate of db/db mice
T1 sequence (Q99KQ4 whole entry): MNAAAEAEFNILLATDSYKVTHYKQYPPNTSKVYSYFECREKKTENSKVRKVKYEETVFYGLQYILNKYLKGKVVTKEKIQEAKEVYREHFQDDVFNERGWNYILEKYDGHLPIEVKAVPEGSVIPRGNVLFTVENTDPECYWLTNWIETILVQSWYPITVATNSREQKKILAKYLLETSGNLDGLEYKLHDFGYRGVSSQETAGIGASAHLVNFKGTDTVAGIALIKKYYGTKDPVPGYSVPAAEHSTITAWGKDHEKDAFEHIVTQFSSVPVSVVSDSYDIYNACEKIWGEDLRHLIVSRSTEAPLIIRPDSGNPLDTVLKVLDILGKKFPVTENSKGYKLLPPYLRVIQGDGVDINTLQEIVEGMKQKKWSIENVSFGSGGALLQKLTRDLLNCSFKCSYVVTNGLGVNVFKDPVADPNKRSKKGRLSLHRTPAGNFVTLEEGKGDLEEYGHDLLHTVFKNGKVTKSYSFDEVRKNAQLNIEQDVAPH
From the text: Nampt enzymatic activity.

db/db mice [2] = test: Serum pyruvate in db/db mice; details: vs db-Veh
Procedure: Serum pyruvate enzymatic activity. Serum pyruvate levels were measured using the pyruvate assay kit (Sigma-Aldrich, MO, USA) as per manufacturer's protocol. Briefly, 5 μL of the serum samples were added to each well along with the pyruvate assay buffer, probe solution and the enzyme mix, and incubated for 30 min at RT.

[3] = tested on: Nampt+/− and littermate WT mice; test: Glucose tolerance test in Nampt+/- and littermate WT mice; details: vs vehicle
db/db mice [4] = test: Electrocardiography in db/db mice; details: 10 mg/kg/day i.p., 4 weeks, vs vehicle
Procedure: Electrocardiography (ECG). Mouse ECG recordings were obtained utilizing 2-3% isoflurane/oxygen anesthesia in lead II configuration. ECGs were acquired for a total duration of 15 min, with 1 min recordings obtained at 5-minute intervals. Heart rate was monitored, while ECG traces were acquired using PowerLab system operated with LabChart 7.2 software (AD Instruments, UK). Data were analyzed offline using the ECG module of LabChart 7.2 software, as reported elsewhere. The intervals (ms) of QTc, JT, and ST elevation (mV) were measured. QT interval was measured from the start of the Q peak to the point where the T wave returns to the isoelectric baseline (TP baseline), and heart rate corrected QT (QTc) interval was obtained using the formula (QTc=QT/(RR/100)^1/2).

db/db mice [5] = test: Echocardiography, body and heart weight in db/db mice; details: 10 mg/kg/day i.p., four-weeks
Procedure: Echocardiography. Serial […] echocardiography was conducted under 2-3% isoflurane/oxygen anesthesia using a Visualsonic Vevo 770 system equipped with 30 MHz linear signal transducer (Toronto, Ontario, Canada). The mice were depilated as required for imaging and before placing on a 37° C. heated platform. Echo measurements were taken from at least three different cardiac cycles for each mouse. M-mode imaging from short-axis of the left ventricle (LV), using the papillary muscles for reference, was used to obtain measurements. Fractional shortening (FS %) and ejection fraction (EF %) were calculated as previously described.

db/db mice hearts = test: Pyridine nucleotide measurements in db/db hearts; details: vs vehicle control
Procedure: Pyridine nucleotide measurements. NADH/NAD^+ ratios were determined in frozen db/db heart tissues (from the vehicle and P7C3 treated mice) using commercially available EnzyChrome kit (Bioassays, Hayward, Calif., USA) as reported before. Following manufacturer's instructions, cardiac tissue was homogenized in 100 μl of NAD^+ or NADH extraction buffer for NAD^+ and NADH determination, respectively. Samples were heated at 60° C. for 5 minutes on a heat block and neutralized by adding 100 μl of the opposite extraction buffer. Samples were then mixed by brief vortexing and centrifuged at 14,000 rpm for 5 minutes. 40 μl of supernatant from each sample was dispensed in duplicates in a 96-well plate, and 80 μl of working reagent constituted with supplier provided assay buffer, lactate dehydrogenase, lactate and MTT reagent was added to each well. Samples were gently mixed and optical density at 565 nm was acquired immediately (0 min) and after 15 minutes, at room temperature using a microplate reader. A standard curve was utilized for calculating NADH/NAD^+ levels in each sample.

Q: How did the “number of islet of Langerhans per tissue section” value (db/db mice [1]; vs db-Veh) turn out when `OC(CNc1ccccc1)Cn1c2ccc(Br)cc2c2cc(Br)ccc21` (stereo not shown) [P7C3, 3,6-Dibromo-a-[(phenylamino)methyl]-9H-carbazole-9-ethanol] was run?
A: significant increase

Q: What about the “number of β cells per islets of Langerhans” value (db/db mice [1]; vs db-Veh) of the same molecule?
A: increased

Q: And the “number of β cells per tissue section” value (db/db mice [1]; vs db-Veh)?
A: significant increase

Q: What about the “insulin positive β cells area per islet of Langerhans area” value (db/db mice [1]; vs vehicle) of the same molecule?
A: significant increase

Q: What about the “Nampt activity in gastrocnemius muscle” value (Nampt) of the same molecule?
A: significant increase

Q: And the serum pyruvate levels (db/db mice [2])?
A: significantly high

Q: What about the “GTT circulating blood glucose levels” value ([3]; Nampt littermate WT mice, single dose 10 mg/kg i/p) of the same molecule?
A: significant decrease

Q: And the “GTT percent AUC” value ([3]; Nampt littermate WT mice)?
A: significant decrease

Q: And the “GTT blood glucose levels” value ([3]; Nampt+/− mice, single dose 10 mg/kg i/p)?
A: did not show any significant effect

Q: What about the “GTT percent AUC” value ([3]; Nampt+/− mice) of the same molecule?
A: no significant differences

Q: What about the JT interval (db/db mice [4]) of the same molecule?
A: significantly attenuated

Q: And the QTc interval (db/db mice [4])?
A: significantly attenuated

Q: What about the ST elevation (db/db mice [4]) of the same molecule?
A: significantly attenuated

Q: What about the “ejection fraction (EF %)” value (db/db mice [5]) of the same molecule?
A: significantly increased

Q: And the “fractional shortening (FS %)” value (db/db mice [5])?
A: significantly increased

Q: And the “increase in cardiac NAD+/NADH ratio” value (db/db mice hearts)?
A: 2.5 fold
